Assay results published in US20260123631A1, “NATURAL PORPHIN SALT AND USE THEREOF AS PLANT GROWTH REGULATOR AND PLANT IMMUNITY INDUCER” (NANJING BOSTEC BIOLOGICAL ENGINEERING CO., LTD, priority 2022, published 2026).

Tests used:
[1] = Stability of sample solutions in the dark/under light; type: physicochemical
Procedure: Determination: An appropriate amount of a salt sample was taken, dissolved with water, and diluted to prepare a test solution with a concentration of about 10 ppm. An acidic reference substance (extremely-insoluble in water) was prepared with a 30% to 50% ethanol aqueous solution into a test solution with a concentration of about 10 ppm.
Each test solution was scanned by an ultraviolet spectrophotometer (at 0 h) for absorbance in a range of 200 nm to 800 nm immediately after being prepared. Then a test solution of each sample was divided into two parts. One part was placed at room temperature of 25° C. in the dark, and the other part was placed under light with a light intensity of 30,000 lux. At 1 h, 2 h, and 3 h, a solution sample was collected and scanned for absorbance respectively.
An absorbance value of a maximum absorption peak at 0 h (starting) of each test solution was set as a relative content of 100%, and a ratio of an absorbance value at each time point to the absorbance value at 0 h was calculated to determine a relative content, %.

[2] = Water solubility of the prepared salts; type: physicochemical
chlorophyllase = assay: In vitro chlorophyllase-inhibiting activity test; type: biochemical, mung bean; details: substrate chlorophyll 120 ppm, sample 0.3 ppm to 30.0 ppm
Procedure: A chlorophyllase inhibition rate of a salt sample solution at each concentration was determined, and an IC50 value for a chlorophyllase inhibition activity of a salt sample was calculated.

[3] = Dilution and pH determination for sample solutions; type: physicochemical
Procedure: Method: 0.2500 g of a sample was accurately weighed and added to a 25 mL volumetric flask, dissolved with purified water, and diluted to a specified scale to prepare a 1.00% (10,000.0 ppm) initial solution. The initial solution was diluted with purified water in different ratios to prepare a series of solutions with a concentration of 1,000.0 ppm to 0.1 ppm. A pH value of each sample was determined three times.

mosaic virus = assay: Controlling diseases in tobacco by spraying; type: in vivo, tobacco (Yunyan 87); details: 0.20 ppm sprayed twice, 30 L/mu
Source text: For each treatment, 4 plots relatively scattered were selected from the field, with each plot of 50 m^2. An agent was sprayed twice around May 28 and June 4 during a root-spreading stage (12 leaves to 14 leaves) after tobacco transplanting, respectively. A same spraying volume (30 L/mu) was adopted for each treatment. During the spraying operation, each leaf surface should be sprayed evenly without dead corners left.
On July 15, tobacco plants in all treatment plots were surveyed. An incidence grading survey was conducted according to the Grade and investigation method of tobacco diseases and insect pests GB/T23222-2008, and an incidence rate and a disease index were counted for each treatment plot.

wheat = assay: Spraying on wheat to increase a yield; type: in vivo, wheat (Huaimai 35)
Procedure: Crop: Huaimai 35. […] On Jun. 11, 2021, the harvesting was conducted throughout the field at a time.

mung bean seedlings = assay: Inducing adventitious roots from hypocotyls of mung bean; type: in vivo; details: day 7
Procedure: Test solution preparation: 8 mL of a commercially-available STANLEY universal hydroponic nutrient solution was taken and diluted with tap water to 3,200 mL (400-fold dilution) to produce a dilute nutrient solution. An appropriate amount of each of salt samples such as protoporphyrin disodium and potassium chlorhematin was weighed and prepared with the dilute nutrient solution into 0.010 ppm and 0.1 ppm sample test solutions, and 150 mL of each test solution was taken. 150 mL of the dilute nutrient solution was taken as a blank control. The test solutions and the control solution were placed in brown bottles, and the brown bottles were sealed with a black film. Mung bean seedlings with uniform growth and a seedling height of 7 cm to 8 cm were selected, and cut at 3 cm below a first true leaf node. 8 mung bean seedlings were inserted into each bottle (with roots removed) to make lower radicles soaked in a solution. Mung bean seedlings were treated at room temperature of 20° C. to 25° C. for 7 d in total, during which the solution was changed every 2 d. On day 2 to day 3 of the treatment, there was a significant difference. On day 7, the observation and determination were conducted. An average adventitious root number and an average total adventitious root length for each seedling were calculated, and results were shown in the following table: […]

[4] = under light 30,000 lux, 1 h, salts in water, acidic reference in 30% to 50% ethanol
[5] = under light 30,000 lux, 2 h, salts in water, acidic reference in 30% to 50% ethanol
[6] = under light 30,000 lux, 3 h, salts in water, acidic reference in 30% to 50% ethanol
[7] = 3 mg/mu sprayed 3 times (0.2, 0.1, 0.1 ppm)

Compound	Relative content [1, 4]	Relative content [1, 5]	Relative content [1, 6]	solubility in water [2]	IC50 for chlorophyllase inhibition activity (chlorophyllase)	further results
copper zinc chlorophyllin [Example 42]	88.43%	93.28%	70.90%	slightly soluble	17.76 ppm	
zinc iron chlorin [Example 28]	71.19%	65.23%	61.37%	slightly soluble	5.66 ppm	
magnesium iron chlorophyllin	71.60%	62.44%	63.14%		5.26 ppm	pH ([3]; 0.1 ppm in purified water): (6.94); pH ([3]; 1.0 ppm in purified water): (7.11); pH ([3]; 10.0 ppm in purified water): (7.40); pH ([3]; 20.0 ppm in purified water): (7.65); pH ([3]; 30.0 ppm in purified water): (7.78); pH ([3]; 100.0 ppm in purified water): (8.18)
copper copper chlorophyllin [Example 51]	98.85%	97.47%	96.78%	slightly soluble	13.70 ppm	
manganese chlorin [Example 59]	44.94%	40.28%	34.21%	slightly soluble	6.23 ppm	
potassium copper chlorophyllin [Example 43]	83.53%	77.11%	78.11%	easily soluble	12.89 ppm	
copper chlorin [Example 61]	85.27%	82.15%	80.17%	slightly soluble	6.18 ppm	
magnesium copper chlorophyllin [Example 45]	74.46%	68.03%	66.86%		11.87 ppm	
copper iron chlorophyllin [Example 34]	72.13%	68.58%	65.03%	slightly soluble	5.04 ppm	
manganese copper chlorophyllin [Example 47]	76.34%	72.11%	67.37%	soluble	13.85 ppm	
zinc chlorin [Example 60]	55.66%	50.60%	45.30%	slightly soluble	6.37 ppm	
magnesium iron chlorin [Example 23]	74.25%	66.34%	62.11%		5.06 ppm	
copper iron chlorin [Example 29]	78.52%	71.02%	64.29%	slightly soluble	4.92 ppm	
sodium copper chlorophyllin [Copper chlorophyllin Na^+]	72.50%	67.03%	66.30%		13.72 ppm	
manganese iron chlorin [Example 27]	72.13%	68.26%	63.87%	slightly soluble	5.20 ppm	
iron chlorin [reference compound]	31.04%	28.12%	23.73%			Disease index (mosaic virus): 8.90; Relative control effect (mosaic virus): 65.57%; Relative content ([1]; in the dark, 25° C., 0 h): 100.0%; Relative content ([1]; in the dark, 25° C., 1 h): 99.25%; Relative content ([1]; in the dark, 25° C., 2 h): 99.26%; Relative content ([1]; in the dark, 25° C., 3 h): 99.20%; Relative content ([1]; under light 30,000 lux, 0 h): 100.00%; Actual yield per mu (wheat; [7]): 586.9 kg; Ear number per mu (wheat; [7]): 31.5 10,000; Grain number per ear (wheat; [7]): 34.6 grains/ear; Thousand-grain weight (wheat; [7]): 53.9 g; Yield increase rate per mu (wheat; 3 mg/mu sprayed 3 times, versus clear water): 4.99%
zinc copper chlorophyllin [Example 50]	69.84%	65.37%	60.04%	slightly soluble	14.19 ppm	
magnesium zinc chlorophyllin [Example 36]	53.53%	45.74%	39.42%		16.37 ppm	
zinc zinc chlorophyllin [Example 41]	71.62%	66.31%	63.93%	slightly soluble	18.77 ppm	
sodium chlorin [Example 53]	41.71%	30.78%	26.96%	easily soluble	6.03 ppm	
C=CC1=C(C)c2cc3[nH]c(cc4nc(cc5[nH]c(cc1n2)c(C)c5CCC(=O)O)C(CCC(=O)O)=C4C)c(C)c3C=C [Protoporphyrin disodium, protoporphyrin disodium, reference compound]	63.47%	62.74%	57.05%			pH ([3]; 0.1 ppm in purified water): (6.61); pH ([3]; 1.0 ppm in purified water): (6.67); pH ([3]; 10.0 ppm in purified water): (7.21); pH ([3]; 20.0 ppm in purified water): (7.37); pH ([3]; 30.0 ppm in purified water): (7.50); pH ([3]; 100.0 ppm in purified water): (8.05); pH ([3]; 1000.0 ppm in purified water): (9.25); pH ([3]; 10000.0 ppm in purified water): (10.60); Adventitious root number (mung bean seedlings; 0.01 ppm): 9.61 root/seedling; Total adventitious root length (mung bean seedlings; 0.01 ppm): 20.74 cm/seedling; Adventitious root number (mung bean seedlings; 0.1 ppm): 9.77 root/seedling; Total adventitious root length (mung bean seedlings; 0.1 ppm): 21.30 cm/seedling
potassium chlorin [Example 52]	60.05%	46.81%	42.89%	easily soluble	5.98 ppm	
sodium zinc chlorophyllin [Zinc chlorophyllin Na^+]	51.90%	42.51%	37.81%		15.91 ppm	
potassium iron chlorophyllin [Example 30]	72.04%	65.63%	57.54%	easily soluble	5.09 ppm	
